Data: ChEMBL document CHEMBL1201862, “PubChem BioAssay data set” (2004)
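Assay format: 96-well plates, 48-hour exposure. At the GI50, growth is halved.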 Calls of active or inactive are those of the source. Rule as the data show it: active = GI50 up to about 1.1 µM and inactive = higher.

Columns and labels:
Assay in all cases: growth of human tumour cells (NCI), 48 h
[1] = test system: DU-145
[2] = test system: CCRF-CEM
[3] = test system: HT-29
[4] = test system: CAKI-1
[5] = test system: EKVX
[6] = test system: SK-MEL-2
[7] = test system: SR
[8] = test system: HOP-92
[9] = test system: SF-295
[10] = test system: SK-MEL-28
[11] = test system: UACC-62
[12] = test system: HL-60
[13] = test system: OVCAR-5
[14] = test system: SF-539
[15] = test system: NCI-H23
[16] = test system: SNB-75
[17] = test system: HCT-116
[18] = test system: OVCAR-8
[19] = test system: OVCAR-4
[20] = test system: MDA-N

For `CCN1CCC(O)(c2ccc(Oc3ccc(Cl)cc3)cc2)C(C(=O)c2ccc(Oc3ccc(Cl)cc3)cc2)C1` (stereo not given), the GI50 [1] was 16.5 µM (inactive), the GI50 [2] was 3.44 µM (inactive) and the GI50 [3] was 5.07 µM (inactive). For the same compound, the GI50 [4] was 14.3 µM (inactive), the GI50 [5] was 16.8 µM (inactive) and the GI50 [6] was 21.9 µM (inactive). For the same compound, the GI50 [7] was 3.48 µM (inactive), the GI50 [8] was 7.16 µM (inactive) and the GI50 [9] was 12.4 µM (inactive). For the same compound, the GI50 [10] was 20.5 µM (inactive), the GI50 [11] was 12.2 µM (inactive) and the GI50 [12] was 1.8 µM (inactive). For the same compound, the GI50 [13] was 13.5 µM (inactive), the GI50 [14] was 15.3 µM (inactive) and the GI50 [15] was 11.7 µM (inactive). For the same compound, the GI50 [16] was 12.9 µM (inactive), the GI50 [17] was 3.78 µM (inactive) and the GI50 [18] was 17.1 µM (inactive). The GI50 [19] was 14.3 µM (inactive) and the GI50 [20] was 14 µM (inactive).

In the case of `CC1OC(OC2C(O[C@H]3CC[C@@]4(C)C(=CC[C@H]5[C@@H]6C[C@@H]7O[C@]8(CC[C@@H](C)CO8)[C@@H](C)[C@@H]7[C@@]6(C)CC[C@@H]54)C3)OC(CO)C(O)C2OC2OC(CO)C(O)C(O)C2O)C(O)C(O)C1O` (stereo not given in full), the GI50 [1] is reported as 2.08 µM (inactive), the GI50 [2] is reported as 14.3 µM (inactive) and the GI50 [3] is reported as 14.7 µM (inactive). The GI50 [4] was 3.5 µM (inactive), the GI50 [5] was 12.4 µM (inactive) and the GI50 [6] was 1.72 µM (inactive). The GI50 [7] was > 100 µM (inactive), the GI50 [8] was 1.79 µM (inactive) and the GI50 [9] was 2.14 µM (inactive). For the same compound, the GI50 [10] was 1.9 µM (inactive), the GI50 [11] was 2.33 µM (inactive) and the GI50 [12] was 3.35 µM (inactive). The GI50 [13] was 13 µM (inactive), the GI50 [14] was 2.15 µM (inactive) and the GI50 [15] was 1.89 µM (inactive). For the same compound, the GI50 [16] was 2.04 µM (inactive), the GI50 [17] was 2.58 µM (inactive) and the GI50 [18] was 3.19 µM (inactive). The GI50 [19] was 1.58 µM (inactive) and the GI50 [20] was 1.72 µM (inactive).

In the case of `O=CCCCCCOCc1ccccc1`, the GI50 [1] is reported as 71.9 µM (inactive), the GI50 [2] is reported as 28 µM (inactive) and the GI50 [3] is reported as > 100 µM (inactive). The GI50 [4] was > 45.8 µM (inactive), the GI50 [5] was > 100 µM (inactive) and the GI50 [6] was > 100 µM (inactive). For the same compound, the GI50 [7] was 39.6 µM (inactive), the GI50 [8] was > 100 µM (inactive) and the GI50 [9] was 30.6 µM (inactive). The GI50 [10] was > 100 µM (inactive), the GI50 [11] was > 58.1 µM (inactive) and the GI50 [12] was 11.6 µM (inactive). The GI50 [13] was > 100 µM (inactive), the GI50 [14] was > 100 µM (inactive) and the GI50 [15] was 50.7 µM (inactive). For the same compound, the GI50 [16] was > 78.2 µM (inactive), the GI50 [17] was 27 µM (inactive) and the GI50 [18] was > 69.8 µM (inactive). The GI50 [19] was > 87.5 µM (inactive) and the GI50 [20] was > 100 µM (inactive).

For `c1ccc(-c2nnc(SCc3c[nH]c4ccccc34)n2-c2ccccc2)cc1`, the GI50 [1] was 40.3 µM (inactive), the GI50 [2] was 25.9 µM (inactive) and the GI50 [3] was 8 µM (inactive). The GI50 [4] was 33.1 µM (inactive), the GI50 [5] was 21.8 µM (inactive) and the GI50 [6] was 29.2 µM (inactive). For the same compound, the GI50 [7] was 11.7 µM (inactive), the GI50 [8] was 3.55 µM (inactive) and the GI50 [9] was 19.6 µM (inactive). The GI50 [10] was 75.3 µM (inactive), the GI50 [11] was 21.5 µM (inactive) and the GI50 [12] was > 100 µM (inactive). The GI50 [13] was > 100 µM (inactive), the GI50 [14] was 18.9 µM (inactive) and the GI50 [15] was 41.4 µM (inactive). For the same compound, the GI50 [16] was 18.7 µM (inactive), the GI50 [17] was 35.6 µM (inactive) and the GI50 [18] was 30.7 µM (inactive). For the same compound, the GI50 [19] was 29.5 µM (inactive) and the GI50 [20] was 78 µM (inactive).

`N#C/C(=C\Nc1ccccn1)C(=O)C1CC1` was tested, and the GI50 [1] was > 100 µM (inactive), the GI50 [2] was 76.9 µM (inactive) and the GI50 [3] was > 100 µM (inactive). For the same compound, the GI50 [4] was > 100 µM (inactive), the GI50 [5] was > 100 µM (inactive) and the GI50 [6] was > 100 µM (inactive). The GI50 [7] was > 100 µM (inactive), the GI50 [8] was > 100 µM (inactive) and the GI50 [9] was > 100 µM (inactive). The GI50 [10] was > 100 µM (inactive), the GI50 [11] was > 100 µM (inactive) and the GI50 [12] was > 100 µM (inactive). For the same compound, the GI50 [13] was > 100 µM (inactive), the GI50 [14] was > 100 µM (inactive) and the GI50 [15] was > 100 µM (inactive). For the same compound, the GI50 [16] was > 100 µM (inactive), the GI50 [17] was > 100 µM (inactive) and the GI50 [18] was > 100 µM (inactive). For the same compound, the GI50 [19] was > 100 µM (inactive) and the GI50 [20] was > 100 µM (inactive).

With `CCOC(=O)C(Cc1ccccc1)(Cc1ccc(O)cn1)NC(=O)c1ccccc1` (stereo not given) the GI50 [1] was 27.5 µM (inactive), the GI50 [2] was 7.03 µM (inactive) and the GI50 [3] was 26.5 µM (inactive). The GI50 [4] was 26.2 µM (inactive), the GI50 [5] was 25.9 µM (inactive) and the GI50 [6] was 20.2 µM (inactive). The GI50 [7] was 6.56 µM (inactive), the GI50 [8] was 18.5 µM (inactive) and the GI50 [9] was 27.3 µM (inactive). The GI50 [10] was 36.5 µM (inactive), the GI50 [11] was 16.7 µM (inactive) and the GI50 [12] was 21.7 µM (inactive). The GI50 [13] was 27.3 µM (inactive), the GI50 [14] was 23.8 µM (inactive) and the GI50 [15] was 32.8 µM (inactive). For the same compound, the GI50 [16] was 21.6 µM (inactive), the GI50 [17] was 24.7 µM (inactive) and the GI50 [18] was 31.6 µM (inactive). For the same compound, the GI50 [19] was 27.4 µM (inactive) and the GI50 [20] was 6.27 µM (inactive).

In the case of `N#CC1(C#N)C2(c3ccccc3)OC(c3ccccc3)(c3cc4ccccc4cc32)C1(C#N)C#N`, the GI50 [1] is reported as 14.5 µM (inactive), the GI50 [2] is reported as 1.08 µM (active) and the GI50 [3] is reported as 14.8 µM (inactive). The GI50 [4] was 7.91 µM (inactive), the GI50 [5] was 16.6 µM (inactive) and the GI50 [6] was 19.4 µM (inactive). The GI50 [7] was 33.3 µM (inactive), the GI50 [8] was 1.52 µM (inactive) and the GI50 [9] was 15.8 µM (inactive). The GI50 [10] was 12.4 µM (inactive), the GI50 [11] was 17.7 µM (inactive) and the GI50 [12] was 2.37 µM (inactive). The GI50 [13] was 15.8 µM (inactive), the GI50 [14] was 16.1 µM (inactive) and the GI50 [15] was 11.9 µM (inactive). For the same compound, the GI50 [16] was 13 µM (inactive), the GI50 [17] was 7.03 µM (inactive) and the GI50 [18] was 8.3 µM (inactive). For the same compound, the GI50 [19] was 11.4 µM (inactive) and the GI50 [20] was 16.9 µM (inactive).

In the case of `COc1cc(Cn2c(=S)ss/c2=N\C(=S)N(C)C)cc(OC)c1OC`, the GI50 [1] is reported as > 28.5 µM (inactive), the GI50 [2] is reported as 4.32 µM (inactive) and the GI50 [3] is reported as 4.04 µM (inactive). The GI50 [4] was 4.57 µM (inactive), the GI50 [5] was > 81.5 µM (inactive) and the GI50 [6] was 4.46 µM (inactive). The GI50 [7] was 3.42 µM (inactive), the GI50 [8] was 17.9 µM (inactive) and the GI50 [9] was 3.44 µM (inactive). For the same compound, the GI50 [10] was 10 µM (inactive), the GI50 [11] was 2.85 µM (inactive) and the GI50 [12] was 2.05 µM (inactive). The GI50 [13] was > 68.9 µM (inactive), the GI50 [14] was 6.35 µM (inactive) and the GI50 [15] was 14.7 µM (inactive). The GI50 [16] was 3.77 µM (inactive), the GI50 [17] was 4.53 µM (inactive) and the GI50 [18] was 52.6 µM (inactive). For the same compound, the GI50 [19] was 48.4 µM (inactive) and the GI50 [20] was 1.1 µM (active).

In the case of `O=C(Nc1sccc1S(=O)(=O)c1ccc(Cl)cc1)c1ccc(F)cc1F`, the GI50 [1] is reported as 53.1 µM (inactive), the GI50 [2] is reported as 19.2 µM (inactive) and the GI50 [3] is reported as > 100 µM (inactive). For the same compound, the GI50 [4] was 26.2 µM (inactive), the GI50 [5] was 19.6 µM (inactive) and the GI50 [6] was 18.9 µM (inactive). For the same compound, the GI50 [7] was 18.2 µM (inactive), the GI50 [8] was 19.5 µM (inactive) and the GI50 [9] was 23.3 µM (inactive). For the same compound, the GI50 [10] was > 100 µM (inactive), the GI50 [11] was 25.8 µM (inactive) and the GI50 [12] was > 100 µM (inactive). For the same compound, the GI50 [13] was 27.8 µM (inactive), the GI50 [14] was 14.3 µM (inactive) and the GI50 [15] was 21 µM (inactive). The GI50 [16] was 19.3 µM (inactive), the GI50 [17] was 45.8 µM (inactive) and the GI50 [18] was 30.9 µM (inactive). For the same compound, the GI50 [19] was 21.2 µM (inactive) and the GI50 [20] was > 100 µM (inactive).

In the case of `CCCCn1c(C)c(C(=O)OCC)s/c1=N/Nc1nc2ccccc2nc1-c1ccccc1`, the GI50 [1] is reported as 37.7 µM (inactive), the GI50 [2] is reported as > 100 µM (inactive) and the GI50 [3] is reported as > 100 µM (inactive). For the same compound, the GI50 [4] was > 100 µM (inactive), the GI50 [5] was > 100 µM (inactive) and the GI50 [6] was > 100 µM (inactive). For the same compound, the GI50 [7] was > 100 µM (inactive), the GI50 [8] was 44 µM (inactive) and the GI50 [9] was 43.3 µM (inactive). The GI50 [10] was > 100 µM (inactive), the GI50 [11] was > 100 µM (inactive) and the GI50 [12] was 17.9 µM (inactive). For the same compound, the GI50 [13] was > 100 µM (inactive), the GI50 [14] was > 100 µM (inactive) and the GI50 [15] was 92.9 µM (inactive). The GI50 [16] was > 100 µM (inactive), the GI50 [17] was > 100 µM (inactive) and the GI50 [18] was 56.2 µM (inactive). The GI50 [19] was 65 µM (inactive) and the GI50 [20] was > 100 µM (inactive).
